Reference: patent US10745401B2, “Condensed lactam derivative” (Sumitomo Dainippon Pharma Co., Ltd., priority 2018, dated 2020)

Key:
human D2 receptor = human D2 receptor (Homo sapiens (Human), UniProt P14416); test: Test 1: binding activity for human D2 receptor ([3H]Spiperone, CHO cell membrane fraction); conditions: human D2 receptor, [3H]Spiperone
Protocol: (§1) Test 1: Evaluation of Binding Activity for Human 5-HT1A Receptor, Human 5-HT2A Receptor, and Human D2 Receptor
(§2) Binding affinity of the present compound for human 5-HT1A receptor, human 5-HT2A receptor, and human D2 receptor was measured by the following procedures.
(§3) Each mixture was incubated at room temperature for 60 minutes. Then, the mixture was added quickly on a glassfiber filter plate (Multiscreen FB, Millipore, Inc.) coated with 0.3% aqueous polyethylenimine, and vacuum-filtered. Radioactivity remaining on the filter was measured with a liquid scintillation counter (PerkinElmer, Inc.). Binding inhibition rate was calculated from the following formula.
(§4) Ki of each compound was calculated from the following formula. Binding inhibition constant (Ki)=IC50/(1+S/Kd) wherein S is concentration of ligand; Kd is a binding dissociation constant of ligand to membrane, which is calculated from a saturated binding experiment conducted with the same cell membrane. A small Ki value means strong binding ability to a receptor.

human 5-HT1A receptor [1] = biological target: T1, human 5-HT1A receptor (Homo sapiens (Human), UniProt P08908); test: Test 1: binding activity for human 5-HT1A receptor ([3H]8-OH-DPAT, CHO cell membrane fraction)
Protocol: as §1, §2, §3
as §4, with “IC50 value was calculated by Hill analysis (Physiology, 1910, 40, 190-200). Ki of” for “Ki of”

human 5-HT1A receptor [2] = biological target: T1, human 5-HT1A receptor; test: Test 2: agonist activity for human 5-HT1A receptor ([35S]GTPγS binding); type: biochemical; conditions: for EC50: [35S]GTPγS binding, concentration at which half the activity of Emax was obtained; for Emax at 10 µM: agonist activity in the presence of 10 μM of compound, relative to 100 μmol/L 5-HT
Protocol: Test 2: Evaluation of Agonist Activity for Human 5-HT1A Receptor
CHO cell membrane fraction in which human 5-HT1A receptor was expressed as used in Test 1 was purchased. To a buffer containing guanosine diphosphate were added a test compound dissolved in DMSO, each receptor membrane sample diluted with buffer, and [^35S] Guanosine 5′-O-[gamma-thio]triphosphate (GTPγS). The mixture was incubated at room temperature for 60 minutes. Then, the mixture was added quickly on a glassfiber filter plate (Multiscreen FB, Millipore, Inc.), and vacuum-filtered. Radioactivity remaining on the […] was measured with a liquid scintillation counter. Agonist activity was calculated from the following formula.

[3] = Test 4: metabolic stability test in human hepatic microsome; type: in vitro ADME; conditions: 0.1 mg/mL microsome, 0.1 μmol/L compound, 37° C., 30 minutes
Protocol: Test 4: Metabolic Stability Test in Human Hepatic Microsome
The stability of the present compound in human hepatic microsome metabolism was evaluated as mentioned below. Human hepatic microsome was obtained from Xenontech. Human hepatic microsome, NADPH, and each test compound were mixed in 25 mmol/L phosphate buffer solution (pH 7.4) to reach the following concentrations as shown below, and the mixture was incubated at 37° C. for 30 minutes. • Human hepatic microsome: 0.1 mg/mL • NAPDH: 3.2 mmol/L • Test compound: 0.1 μmol/L
The residual ratio of the test compound in each sample after 30 minutes was measured by LC-MS, and the metabolic stability in human hepatic microsome was calculated from the following formula. Metabolic stability in human hepatic microsome (mL/min/mg protein)=−LN (residual ratio)/30/0.1

hERG channel = hERG channel (Homo sapiens (Human), UniProt Q12809); test: Test 6-1: inhibitory activity for hERG channel (auto patch clamp, Qpatch); type: cell-based; conditions: whole cell auto patch clamp, hERG-CHO cells; read-out: hERG inhibition IC50
Protocol: Test 6-1: Evaluation of Inhibitory Activity for hERG Channel
Inhibitory activity of the present compound for hERG channel was measured by whole cell patch clamp method with an auto patch clamp system using CHO cells in which hERG channel involved in human rapidly activating delayed rectifier potassium current (IKr) was forcibly expressed.
hERG-CHO cells purchased from ChanTest Cop. were cultured in a CO2 incubator at 37° C., and dissociated from a flask with trypsin shortly before the measurement of hERG current, to prepare a cell suspension.
Extracellular fluid: 2 mmol/L CaCl2, 1 mmol/L MgCl2, 10 mmol/L HEPES, 4 mmol/L KCl, 145 mmol/L NaCl, 10 mmol/L Glucose
Intracellular fluid: 5.4 mmol/L CaCl2, 1.8 mmol/L MgCl2, 10 mmol/L HEPES, 31 mmol/L KOH, 10 mmol/L EGTA, 120 mmol/L KCl, 4 mmol/L Na2-ATP
Test compound solution: Test compound was dissolved in DMSO to reach the concentration of 2 mmol/L or 20 mmol/L, in order to prepare a test compound solution. […] (Measurement of Current Value and Data Analysis)
The cell suspension, the extracellular fluid, the intracellular fluid, and the measurement plate were set in the auto patch clamp system, and hERG current was measured by whole cell patch clamp method. […] Each pulse interval was 15 seconds. The data analysis was carried out with Qpatch Assay Software (Biolin Scientific). The test was carried out by applying incrementally 4 concentrations of each test compound, and the average of the maximum peak tail currents which were obtained from the last 3 stimulations in each concentration was determined as the evaluated data. Based on the current inhibition rate for a pre-applied current at each concentration of each test compound, IC50 value was calculated by Hill equation with the software.

Sequence of hERG channel (Q12809 whole entry): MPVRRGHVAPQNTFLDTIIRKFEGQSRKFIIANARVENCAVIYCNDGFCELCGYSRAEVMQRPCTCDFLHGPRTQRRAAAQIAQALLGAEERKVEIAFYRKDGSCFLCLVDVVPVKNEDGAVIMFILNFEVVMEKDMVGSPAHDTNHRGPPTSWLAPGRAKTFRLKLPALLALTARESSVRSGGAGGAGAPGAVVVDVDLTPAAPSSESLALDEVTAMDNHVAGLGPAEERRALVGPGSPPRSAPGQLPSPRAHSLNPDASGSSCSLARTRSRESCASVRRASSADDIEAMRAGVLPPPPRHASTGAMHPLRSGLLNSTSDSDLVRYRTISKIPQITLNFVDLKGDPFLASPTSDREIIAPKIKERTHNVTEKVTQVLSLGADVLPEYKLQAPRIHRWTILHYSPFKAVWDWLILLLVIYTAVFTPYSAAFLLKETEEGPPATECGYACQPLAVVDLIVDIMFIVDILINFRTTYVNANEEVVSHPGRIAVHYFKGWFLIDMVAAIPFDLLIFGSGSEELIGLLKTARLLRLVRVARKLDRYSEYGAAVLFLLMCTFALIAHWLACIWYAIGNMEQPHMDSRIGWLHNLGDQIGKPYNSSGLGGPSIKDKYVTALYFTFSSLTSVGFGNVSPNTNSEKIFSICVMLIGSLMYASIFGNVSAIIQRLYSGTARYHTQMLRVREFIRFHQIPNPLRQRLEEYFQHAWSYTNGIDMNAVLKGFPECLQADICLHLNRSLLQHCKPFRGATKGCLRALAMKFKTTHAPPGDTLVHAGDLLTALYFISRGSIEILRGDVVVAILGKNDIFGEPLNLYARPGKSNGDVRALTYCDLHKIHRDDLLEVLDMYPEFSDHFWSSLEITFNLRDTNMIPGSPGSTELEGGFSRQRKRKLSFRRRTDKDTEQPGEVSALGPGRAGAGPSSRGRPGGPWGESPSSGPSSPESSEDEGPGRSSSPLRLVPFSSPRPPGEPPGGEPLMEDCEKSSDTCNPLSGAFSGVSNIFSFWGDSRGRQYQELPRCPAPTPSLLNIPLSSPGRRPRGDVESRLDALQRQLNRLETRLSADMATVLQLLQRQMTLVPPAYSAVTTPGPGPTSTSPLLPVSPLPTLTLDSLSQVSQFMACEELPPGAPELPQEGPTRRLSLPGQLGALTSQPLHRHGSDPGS
T1 sequence (P08908 whole entry): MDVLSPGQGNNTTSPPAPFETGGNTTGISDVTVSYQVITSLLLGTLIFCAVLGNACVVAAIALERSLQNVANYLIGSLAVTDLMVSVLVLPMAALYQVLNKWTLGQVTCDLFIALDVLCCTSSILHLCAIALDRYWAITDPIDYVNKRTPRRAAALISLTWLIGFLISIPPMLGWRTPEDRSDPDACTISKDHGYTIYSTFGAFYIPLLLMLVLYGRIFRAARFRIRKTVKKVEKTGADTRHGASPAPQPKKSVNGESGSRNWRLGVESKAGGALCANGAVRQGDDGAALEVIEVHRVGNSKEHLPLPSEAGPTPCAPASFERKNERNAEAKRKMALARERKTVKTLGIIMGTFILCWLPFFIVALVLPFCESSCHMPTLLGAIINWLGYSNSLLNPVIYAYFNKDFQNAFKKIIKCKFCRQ
Sequence of human D2 receptor (P14416 whole entry): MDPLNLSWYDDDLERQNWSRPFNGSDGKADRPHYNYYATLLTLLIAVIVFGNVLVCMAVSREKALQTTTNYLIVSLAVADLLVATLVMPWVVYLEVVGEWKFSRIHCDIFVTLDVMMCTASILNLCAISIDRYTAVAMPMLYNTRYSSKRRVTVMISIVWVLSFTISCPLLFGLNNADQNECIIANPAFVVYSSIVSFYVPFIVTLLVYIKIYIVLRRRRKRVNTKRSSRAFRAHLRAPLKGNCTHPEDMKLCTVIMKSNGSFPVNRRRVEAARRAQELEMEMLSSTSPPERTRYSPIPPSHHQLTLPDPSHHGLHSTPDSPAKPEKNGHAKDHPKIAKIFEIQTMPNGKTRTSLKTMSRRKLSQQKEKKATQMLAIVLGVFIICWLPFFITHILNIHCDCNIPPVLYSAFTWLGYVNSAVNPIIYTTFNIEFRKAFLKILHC

| Structure (SMILES) | Ki (human D2 receptor) | Ki (human 5-HT1A receptor [1]) | EC50 (human 5-HT1A receptor [2]) | Emax at 10 µM (human 5-HT1A receptor [2]) | Metabolic stability in human hepatic microsome [3] | IC50 (hERG channel) |
| --- | --- | --- | --- | --- | --- | --- |
| Cc1c2c(nn1C)CCN(CCN1CCN(c3nsc4ccccc34)CC1)C2=O [Example 65] | 222 nM | 0.9 nM | 2.1 nM | 72% | 0.126 mL/min/mg protein | 4400 nM |
| Cn1cnc2c1CCN(CCN1CCC(c3noc4ccccc34)CC1)C2=O [Example 16] | 34000 nM | 18.6 nM | 300 nM | 40% | <0.01 mL/min/mg protein | > 10000 nM |
| O=C1c2cnc(C3CC3)nc2CCN1CCN1CCN(c2nsc3ccccc23)CC1 [Example 94] | 236 nM | 5.24 nM | 79.4 nM | 53% | 0.368 mL/min/mg protein | 2300 nM |
| Cc1ncc2c(n1)CCN(CCN1CCN(c3nsc4ccccc34)CC1)C2=O [Example 90] | 1070 nM | 6.77 nM | 57.7 nM | 65% | 0.070 mL/min/mg protein | > 10000 nM |
| O=C1c2cnc(Br)cc2CCN1CCN1CCN(c2nsc3ccccc23)CC1 [Example 62] | 222 nM | 0.1 nM | 1.01 nM | 62% | 0.505 mL/min/mg protein | 1500 nM |
| Cn1cc2c(n1)C(=O)N(CCN1CCN(c3nsc4ccccc34)CC1)CC2 [Example 50] | 825 nM | 1.25 nM | 5.14 nM | 59% | 0.038 mL/min/mg protein | 8500 nM |
| Cn1ncc2c1C(=O)N(CCN1CCC(c3noc4ccccc34)CC1)CCC2 [Example 155] | 114 nM | 14 nM | 74.2 nM | 63% | 0.121 mL/min/mg protein | 700 nM |
| O=C1c2c(Br)n[nH]c2CCN1CCN1CCC(c2noc3ccccc23)CC1 [Example 192, 5-{2-[4-(1,2-Benzoisoxazol-3-yl)piperidin-1-yl]ethyl}-3-bromo-1,5,6,7-tetrahydro-4H-pyrazolo[4,3-c]pyridin-4-one] | 219 nM | 200 nM | 7670 nM | 11% | <0.05 mL/min/mg protein | 700 nM |
| COc1cc2c(cn1)CCN(CCN1CCN(c3nsc4ccccc34)CC1)C2=O [Example 19] | 690 nM | 0.75 nM | 6.7 nM | 68% | 0.378 mL/min/mg protein | 5200 nM |
| O=C1c2nc[nH]c2CCN1CCN1CCC(c2noc3ccccc23)CC1 [Example 191, 5-{2-[4-(1,2-Benzoisoxazol-3-yl)piperidin-1-yl]ethyl}-6,7-dihydro[1,3]imidazolo[4,5-c]pyridin-4(5H)-one] | 286 nM | 817 nM | 4260 nM | 14% | <0.05 mL/min/mg protein | 2600 nM |
| COc1cc2c(cn1)C(=O)N(CCN1CCN(c3noc4ccccc34)CC1)CC2 [Example 20] | 1890 nM | 0.77 nM | 4.72 nM | 52% | 0.091 mL/min/mg protein | 5400 nM |
| O=C1c2occc2CCN1CCN1CCC(c2noc3ccccc23)CC1 [Example 127] | 203 nM | 35.7 nM | 56.9 nM | 48% | <0.05 mL/min/mg protein | 600 nM |
| Cn1ncc2c1CCC(CCN1CCN(c3nsc4ccccc34)CC1)C2=O (stereo not shown) [Example 29] | 143 nM | 0.68 nM | 64.5 nM | 42% | 0.063 mL/min/mg protein | 2300 nM |
| Cc1cncc2c1CCN(CCN1CCC(c3noc4ccccc34)CC1)C2=O [Example 138] | 76 nM | 27.6 nM | 100 nM | 32% | 0.083 mL/min/mg protein | 1200 nM |
| O=C1c2cn(C3CC3)nc2CCN1CCN1CCN(c2nsc3ccccc23)CC1 [Example 75] | 210 nM | 2.39 nM | 7.13 nM | 56% | 0.174 mL/min/mg protein | 1200 nM |
| CCc1ncc2c(n1)CCN(CCN1CCN(c3nsc4ccccc34)CC1)C2=O [Example 93, 6-{2-[4-(1,2-Benzoisothiazol-3-yl)piperazin-1-yl]ethyl}-2-ethyl-7,8-dihydropyrido[4,3-d]pyrimidin-5(6H)-one] | 826 nM | 9.36 nM | 15.1 nM | 41% | 0.149 mL/min/mg protein | 6600 nM |
| Cn1cnc2c1C(=O)N(CCN1CCC(c3noc4ccccc34)CC1)CCC2 [Example 134] | 310 nM | 65.3 nM | 221 nM | 41% | <0.05 mL/min/mg protein | 3500 nM |
| Cn1ccc2c1CCN(CCN1CCN(c3nsc4ccccc34)CC1)C2=O [Example 61] | 134 nM | 1.7 nM | 9.8 nM | 63% | 0.056 mL/min/mg protein | > 10000 nM |
| Cc1nn(C)c2c1C(=O)N(CCN1CCN(c3nsc4ccccc34)CC1)CC2 [Example 105, 5-{2-[4-(1,2-Benzoisothiazol-3-yl)piperazin-1-yl]ethyl}-1,3-dimethyl-1,5,6,7-tetrahydro-4H-pyrazolo[4,3-c]pyridin-4-one] | 194 nM | 6 nM | 14 nM | 74% | 0.101 mL/min/mg protein | 7900 nM |
| Cc1nc2c(o1)CCN(CCN1CCC(c3noc4ccccc34)CC1)C2=O [Example 39] | 1860 nM | 0.84 nM | 9.06 nM | 61% | 0.016 mL/min/mg protein | 1800 nM |
| O=c1c2cnccc2ccn1CCN1CCN(c2nsc3ccccc23)CC1 [Example 11] | 316 nM | 2.95 nM | – | – | 0.245 mL/min/mg protein | 2600 nM |
